Data published in patent US10344330B2, “Glatiramer acetate response biomarker mRNA potency assay” (Mylan Inc., priority 2013, dated 2019).

Columns and labels:
[1] = tested on: mouse IL-2 mRNA in primary LN cells; assay: Validation: mouse IL-2 mRNA by real-time PCR in LN cells of GA-immunized SJL/J mice, three experiments (Example IV); format: cell-based; conditions: for IL-2 mRNA Fold Change: normalized to GAPDH; for induction of IL-2 mRNA: 20 μg/mL GA, 6 hours
Procedure: Three experiments were conducted using one batch of GA (Mylan GMA). The primary LN cells were stimulated by incubation with 6 concentrations (0.3 to 20 μg/mL) of the GA for 6 hours at 37° C. Total RNA was isolated from LN cells stimulated with GA or controls. cDNA was synthesized from the RNA and the mRNA levels of seven mouse cytokines, IL-2, IL-4, IL-5, IL-10, IL-13, interferon (IFN)-γ and tumor necrosis factor (TNF)-α, were quantitatively measured by a real-time PCR method.
Female SJL/J mice at 8-9 weeks of age were immunized by injection into four footpads using a 1 mL syringe with a 27-G, ½-inch needle. Each mouse received a total injection volume of 0.1 mL of GMA emulsified in CFA (about 10 μL into each of the front footpads and 40 μL into each of the hind footpads). Animals were immunized on Day 0. After injection, animals were placed back in their cages and housed ≤6 animals per cage.
Immunized animals were sacrificed by cervical dislocation on Day 10 following immunization. […] After centrifugation at about 200×g for 10 minutes at 4° C., the cell pellet was re-suspended in 40 mL of DCCM-1 medium for cell counting. A Trypan blue exclusion method was used to determine the cell density of viable cells in the suspension. After cell counting, the LN cells were suspended in enriched DCCM-1 medium at density of 7.5×10^6 cells/mL. LN cells (0.12 mL) were plated into each well of 96-well tissue culture plates.
Dilutions of GA (Mylan GMA) were prepared using enriched DCCM-1 medium as the diluent. GA dilutions (0.12 mL) were added in the assigned wells of 96-well tissue culture plates. The same volume of LN cells (0.12 mL) isolated from immunized animals was added to the assigned wells. A positive control and a negative control were always performed in the same assay by treating LN cells with 2.5 μg/mL ConA and 10 μg/mL MBP, respectively. The LN cells with mock stimulation protocols (enriched DCCM-1 medium) were used to monitor the background mRNA level of a cytokine. The plates were incubated at 37° C. in a humidified 5% CO2 incubator for 6 hr.
At the end of incubation time, culture medium from stimulated cells was removed by aspiration and the cells were lysed using Qiagen or Promega lysis buffer. The lysate was transferred to an RNeasy Mini column (Qiagen) or wells of the SV 96 Binding Plate (Promega) for RNA isolation and cDNA synthesis. All tested samples were run in triplicate.
The SV 96 Total RNA Isolation System (Promega; Cat. No. Z3505) was used for total RNA isolation. Assay procedures were carried out according to each manufacturer's protocol. RNA samples were stored at −70° C. until use. […] The assay procedure was carried out according to the manufacturer's protocol.
The plate was centrifuged at 2000 rpm for 2 minutes at 4° C. to spin down the contents and eliminate air bubbles. Samples were prepared and run in a 96-well plate using a Life Technologies Real-Time PCR system (previously Applied Biosystems; Model No. 7500) according to the manufacturer's recommendation. The mix for the reference gene was prepared in the same way using the reference gene primer.
A relative quantitation method was used to analyze changes in mIL-2, mIL-4, mIL-5, mIL-10, mIL-13, mIFN-γ and TNF-α expression in GA treated samples relative to the untreated control (Enriched DCCM-1 treated) samples using the following program:
Levels of mouse cytokine amplicons were normalized to an internal probe level (GAPDH) from the same samples. The following equations were used to calculate the relative increase in response to GA stimulation compared to the control sample (Enriched DCCM1 sample): […]

[2] = tested on: IL-4 secreted by LN cells; assay: IL-4 secretion by GA-stimulated LN cells, MSD 9-plex ELISA (Example II); format: cell-based, mouse; conditions: for IL-4 secretion response ratio (treated cell medium to control DCCM1 medium): 21 hr
Procedure: Animals at 8 weeks of age were immunized by injection into four footpads using a 1 mL syringe with a 27-G, 1⁄2-inch needle. […] Ten days post-immunization, immunized animals were sacrificed via cervical dislocation. […] The LN cells were isolated by pressing the LN with the plunger end of a sterile syringe. […] Trypan blue exclusion method was used to determine the cell density of viable cells in the suspension. […] Cat. […] LN cells were plated into a 24-well tissue culture plate for drug stimulation. […] Cell debris was removed by centrifugation at ca. 200×g for 10 minutes at 4° C. Cytokines secreted by treated cells were determined on the day of collection by ELISA using mouse TH 1/TH 2 9-Plex Tissue Culture Kit (Meso Scale Discovery; Cat No. […]-2, Lot #: K0032839) which detects Th1 cytokines (IFN-γ, IL-2, IL-12, IL-1β, TNF-α, CXCL1) and Th2 cytokines (IL-4, IL-5 and IL-10). For IFN-γ, culture media also were assayed at 45 hours using mouse IFN-γ Tissue Culture Kit (Meso Scale Discovery; Cat No. […] For the positive control, 0.5 mL of LN cells (5×10^6 cells/well) were treated with 0.5 mL of ConA (5 μg/mL). For the negative control, 0.5 mL of LN cells (5×10^6 cells/well) were treated with 0.5 mL of MBP (20 μg/mL). The LN cells with mock stimulation (enriched DCCM1 medium) were used to monitor the background level of a cytokine. For the cytokine assays, calibration standards or samples were incubated in the MULTI-SPOT or the SINGLE-SPOT plate and each cytokine bound to its corresponding capture antibody. All test samples were run in duplicate. The amount of each cytokine on its distinct spot was quantified using a cytokine-specific detection antibody labeled with MSD SULFO-TAGTM reagent. Electrochemiluminescent signals from immobilized SULFO-TAGTM-labeled complexes on each spot from each well were captured by the MSD SECTOR Imager 6000, which produces a signal directly proportional to the amount of captured cytokine in a test sample. The levels of cytokines in test samples were derived by interpolation from calibration curves with calibration standards of known concentrations using reagents provided with the MSD kits. Kits were used according to the manufacturer's protocols. […] Data are expressed as a response ratio of cytokine concentration in treated cell medium to control DCCM1 medium.

[3] = BALB/cByJ, immunized GA Intraplantar
[4] = BALB/cByJ, immunized GA Lower Limb
[5] = BALB/cByJ, immunized Mannitol Intraplantar
[6] = C57BL10J, immunized GA Intraplantar
[7] = C57BL10J, immunized GA Lower Limb
[8] = C57BL10J, immunized Mannitol Intraplantar
[9] = CD-1, immunized GA Intraplantar
[10] = CD-1, immunized Mannitol Intraplantar

Concanavalin A [ConA, reference compound]
IL-2 mRNA Fold Change ([1]; Experiment 1, 2.5 μg/mL): 147.1 fold
IL-2 mRNA Fold Change ([1]; Experiment 2, 2.5 μg/mL): 72.0 fold
IL-2 mRNA Fold Change ([1]; Experiment 3, 2.5 μg/mL): 188.6 fold
IL-4 secretion response ratio (treated cell medium to control DCCM1 medium) [2, 3]: 46.47
IL-4 secretion response ratio (treated cell medium to control DCCM1 medium) [2, 4]: 75.33
IL-4 secretion response ratio (treated cell medium to control DCCM1 medium) [2, 5]: 24.71
IL-4 secretion response ratio (treated cell medium to control DCCM1 medium) [2, 6]: 3.26
IL-4 secretion response ratio (treated cell medium to control DCCM1 medium) [2, 7]: 4.85
IL-4 secretion response ratio (treated cell medium to control DCCM1 medium) [2, 8]: 3.14
IL-4 secretion response ratio (treated cell medium to control DCCM1 medium) [2, 9]: 9.86
IL-4 secretion response ratio (treated cell medium to control DCCM1 medium) ([2]; CD-1, immunized GA Lower Limb): 4.91
IL-4 secretion response ratio (treated cell medium to control DCCM1 medium) [2, 10]: 3.36

L-glutamic acid polymer with L-alanine, L-lysine and L-tyrosine, acetate (salt) [GA]
induction of IL-2 mRNA ([1]; SJL/J, Exp 1): 31.7 fold
induction of IL-2 mRNA ([1]; SJL/J, Exp 2): 27.8 fold
induction of IL-2 mRNA ([1]; SJL/J, Exp 3): 42.0 fold
induction of IL-2 mRNA (in words) ([1]; SJL/J, different concentrations of GA vs unstimulated LN cells): robust induction
IL-4 secretion, dose response to GA (in words) ([2]; BALB/cByJ cells): dose-dependent manner

B1: MBP: myelin basic protein, a negative control (protein, UniProt P02686 1-304, looked up)
Myelin basic protein: MGNHAGKRELNAEKASTNSETNRGESEKKRNLGELSRTTSEDNEVFGEADANQNNGTSSQDTAVTDSKRTADPKNAWQDAHPADPGSRPHLIRLFSRDAPGREDNTFKDRPSESDELQTIQEDSAATSESLDVMASQKRPSQRHGSKYLATASTMDHARHGFLPRHRDTGILDSIGRFFGGDRGAPKRGSGKDSHHPARTAHYGSLPQKSHGRTQDENPVVHFFKNIVTPRTPPPSQGKGRGLSLSRFSWGAEGQRPGFGYGGRASDYKSAHKGFKGVDAQGTLSKIFKLGGRDSRSGSPMARR
IL-2 mRNA Fold Change ([1]; Experiment 1, 10 μg/mL): 1.0 fold
IL-2 mRNA Fold Change ([1]; Experiment 2, 10 μg/mL): 0.9 fold
IL-2 mRNA Fold Change ([1]; Experiment 3, 10 μg/mL): 0.8 fold
IL-2 mRNA expression level in response to MBP treatment ([1]; SJL/J, MBP 10 μg/mL, all PCR runs): ≤ 2 fold
IL-4 secretion response ratio (treated cell medium to control DCCM1 medium) [2, 3]: 0.99
IL-4 secretion response ratio (treated cell medium to control DCCM1 medium) [2, 4]: 1.05
IL-4 secretion response ratio (treated cell medium to control DCCM1 medium) [2, 5]: 1.50
IL-4 secretion response ratio (treated cell medium to control DCCM1 medium) [2, 6]: 1.09
IL-4 secretion response ratio (treated cell medium to control DCCM1 medium) [2, 7]: 1.14
IL-4 secretion response ratio (treated cell medium to control DCCM1 medium) [2, 8]: 1.03
IL-4 secretion response ratio (treated cell medium to control DCCM1 medium) [2, 9]: 0.99
IL-4 secretion response ratio (treated cell medium to control DCCM1 medium) ([2]; CD-1, immunized GA Lower Limb): 0.94
IL-4 secretion response ratio (treated cell medium to control DCCM1 medium) [2, 10]: 1.21
